In patent US8367695B2, “Condensed tetrahydroquinoline derivative and use thereof for medical purposes” (Mitsubishi Tanabe Pharma Corporation, priority 2007, dated 2013) one finds Ki data, which are given here for four compounds.

The Ki is a measure of affinity in units of concentration, obtained from inhibition or displacement.

Molecules are shown by their SMILES.

The assay addresses T1, human recombinant glucocorticoids receptor (GR) (Homo sapiens, UniProt P04150).
T1 sequence (P04150 1-777): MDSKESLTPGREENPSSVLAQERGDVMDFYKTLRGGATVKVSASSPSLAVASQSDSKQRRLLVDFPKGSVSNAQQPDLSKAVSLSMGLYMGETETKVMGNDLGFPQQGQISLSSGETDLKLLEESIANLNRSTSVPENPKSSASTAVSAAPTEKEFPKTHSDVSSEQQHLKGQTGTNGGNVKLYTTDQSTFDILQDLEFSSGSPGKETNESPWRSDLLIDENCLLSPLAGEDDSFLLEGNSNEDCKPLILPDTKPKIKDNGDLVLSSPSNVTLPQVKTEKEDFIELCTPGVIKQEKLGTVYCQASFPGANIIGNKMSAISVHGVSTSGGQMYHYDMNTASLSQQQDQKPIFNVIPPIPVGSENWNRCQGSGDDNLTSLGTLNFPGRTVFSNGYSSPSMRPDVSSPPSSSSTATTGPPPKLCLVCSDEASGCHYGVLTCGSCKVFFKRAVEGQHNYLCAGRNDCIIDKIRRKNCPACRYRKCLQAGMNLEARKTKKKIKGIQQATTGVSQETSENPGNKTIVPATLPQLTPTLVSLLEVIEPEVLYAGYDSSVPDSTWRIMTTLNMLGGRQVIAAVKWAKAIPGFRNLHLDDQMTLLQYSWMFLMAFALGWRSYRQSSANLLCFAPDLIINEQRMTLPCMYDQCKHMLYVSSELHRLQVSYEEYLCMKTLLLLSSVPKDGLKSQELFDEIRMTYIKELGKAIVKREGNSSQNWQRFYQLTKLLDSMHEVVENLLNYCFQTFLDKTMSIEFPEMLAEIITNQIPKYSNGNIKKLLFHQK
As to the kind of experiment: Radioactive ligand binding test, GR cytosol, [3H]-Dex. The following applies: [3H]-Dex about 5 nM, GR cytosol, 4° C.; Cheng-Prusoff, Kd about 3.1 nM; read-out: GR (Ki: nM). As for the experimental part: Radioactive Ligand Binding Test Using Cytosols of Human Glucocorticoids Receptor, Progesterone Receptor and Mineralocorticoid Receptor
Opthalmol. Vis. […] In brief, cytosol preparations of human recombinant glucocorticoids receptor (GR) and human recombinant progesterone receptor-B (PRB) were purchased from Invitrogen (Carlsbad, Calif.), and a cytosol preparation of human recombinant mineralocorticoid receptor (MR) was prepared by our company (Yokohama, JP). MR cDNA was cloned into a baculovirus expression vector and expressed in insect cell Sf9. […] [^3H]-Dexamethasone (Dex, specific activity 91.0 Ci/mmol) was purchased from GE Healthcare (Buckinghamshire, UK), and [^3H]-progesterone (Prog, specific activity 103 Ci/mmol) and [3H]-aldosterone (Ald, specific activity 87.9 Ci/mmol) were each purchased from PerkinElmer (Boston, Mass.). Polypropylene round-bottomed 96 well plate was obtained from ABgene (Epsom, UK). Dimethyl Sulfoxide (DMSO) and hydrochloric acid were obtained from Kanto Chemical (TOKYO, JP). Trizma Base (Tris), Bovine Serum Albumin (BSA) and Sodium tungstate dihydrate were obtained from Sigma Chemicals (St. Louis, Mo.). Dithiothreitol (DTT) and Dextran 70 were obtained from GE Healthcare (Buckinghamshire, UK). Glycerol was obtained from Junsei Chemical (TOKYO, JP). Norit® “SX-II” was obtained from Wako Pure Chemical Industries, Ltd. (Osaka, JP). MeltiLex™, A, Printed Filtermat A and Sample Bag were obtained from PerkinElmer (Boston, Mass.).
As a buffer for GR binding assay, 25 mM Tris-HCl (4° C., pH 7.4)/1 mM EDTA·2Na/1 mM DTT/0.1% BSA was prepared and used. As buffers for PRB and MR binding assay, 10 mM Tris-HCl (4° C., pH 7.4)/1 mM DTT/0.1% BSA/10% glycerol and 20 mM Tris-HCl (4° C., pH 7.4)/1 mM EDTA·2Na/10% glycerol/20 mM sodium tungstate were respectively prepared and used.
Compound storage solutions (5-20 mM) were prepared using DMSO. The storage solutions were diluted with DMSO to 0.1 mM (for GR) and 0.3 mM (for PRB and MR), and further diluted 20-fold with distilled water to give solutions. Then, the preparations were diluted to each concentration with 5% DMSO solution. 1% DMSO was present at the time of the binding assay.
GR, PRB and MR binding reactions were performed in 96 well plate (ABgene). In the case of GR binding assay, [^3H]-Dex (about 5 nM), GR cytosol (concentration of function receptor: about 4 pmol/mL), a test compound and a binding buffer were mixed in a total volume of 50 μL, and the mixture was stood at 4° C. for 30 min or longer. A specific binding was defined to be the difference in the [^3H]-Dex binding between the presence and the absence of 1 μM unlabeled Dex.
After the reaction, 50 μL of DCC was added to each well and blended. Thereafter, the mixture was stood at 4° C. for 10 min. The plate was applied to high-speed cooling centrifuge under the conditions of 4° C., 2000 rpm, 5 min to perform B/F separation. A given amount of the supernatant was recovered, which was spotted on Filtermat A of 96 well format (PerkinElmer) and rapidly dried at a high temperature.
Measurement of Inhibition Constant (Ki)
Ki of the test compound was determined by the following Cheng-Prusoff equation: Ki=IC50/(1+[L*]/Kd) • wherein L* is a concentration of radioactive ligand and Kd is a dissociation constant for radioactive ligand determined by saturation analysis.
In the case of `C=CCC1(C)C(=O)C(C)(C)Nc2c1cc(-c1cccc3nccn13)c1c2CCC1` (stereo not shown) [Example 57, 4-allyl-6-(imidazo[1,2-a]pyridin-5-yl)-2,2,4-trimethyl-2,3,4,7,8,9-hexahydro-1H-cyclopenta[h]quinolin-3-one], the Ki was 14 nM.

As to `C=CCC1(C)C(=O)C(C)(C)Nc2c1cc(-c1c(C)noc1C)c1c2CCC1` (stereo not shown) [Example 51, 4-allyl-6-(3,5-dimethylisoxazol-4-yl)-2,2,4-trimethyl-2,3,4,7,8,9-hexahydro-1H-cyclopenta[h]quinolin-3-one], the Ki is 17 nM.

As to `CC1(C)Nc2c(cc(-c3cccc4nccn34)c3c2CCO3)C(C)(C)C1=O` [Example 88, 6-(imidazo[1,2-a]pyridin-5-yl)-2,2,4,4-tetramethyl-1,2,3,4,8,9-hexahydro-furo[2,3-h]quinolin-3-one], the Ki stood at 19 nM.

With `CC1(C)Nc2c(cc(-c3ccnc4cc[nH]c34)c3c2CCC3)C(C)(C)C1=O` [Example 13, 2,2,4,4-tetramethyl-6-(1H-pyrrolo[3,2-b]pyridin-7-yl)-2,3,4,7,8,9-hexahydro-1H-cyclopenta[h]quinolin-3-one], the Ki was 54 nM.
